Series [1] deals with T1, Phosphatidylinositol 4,5-bisphosphate 3-kinase catalytic subunit alpha isoform (Homo sapiens, UniProt P42336). The experiment in a line: Inhibition of PI3Kalpha-mediated AKT phosphorylation at Ser473 in human U2OS cells by Western blot analysis. The format is cell-based. A general note: Immunoblotting shows a protein as a band on a membrane.
Series [2] concerns the target Serine/threonine-protein kinase mTOR (Homo sapiens, UniProt P42345). The series is described as follows: Inhibition of mTOR.
For series [3], the target named is T1, Phosphatidylinositol 4,5-bisphosphate 3-kinase catalytic subunit alpha isoform. The experiment in a line: Inhibition of PI3Kalpha assessed as accumulation of ADP.
Series [4] has as its target Phosphatidylinositol 4,5-bisphosphate 3-kinase catalytic subunit beta isoform (Homo sapiens, UniProt P42338). The experiment in a line: Inhibition of human PI3Kbeta by HTRF assay. Conditions: read-out: Ki(app). (TR-FRET usually uses a lanthanide donor and a delayed reading to cut background.)
The target in series [5] is T2, Phosphatidylinositol 4,5-bisphosphate 3-kinase catalytic subunit delta isoform (Homo sapiens, UniProt O00329).
T2 sequence (O00329 whole entry): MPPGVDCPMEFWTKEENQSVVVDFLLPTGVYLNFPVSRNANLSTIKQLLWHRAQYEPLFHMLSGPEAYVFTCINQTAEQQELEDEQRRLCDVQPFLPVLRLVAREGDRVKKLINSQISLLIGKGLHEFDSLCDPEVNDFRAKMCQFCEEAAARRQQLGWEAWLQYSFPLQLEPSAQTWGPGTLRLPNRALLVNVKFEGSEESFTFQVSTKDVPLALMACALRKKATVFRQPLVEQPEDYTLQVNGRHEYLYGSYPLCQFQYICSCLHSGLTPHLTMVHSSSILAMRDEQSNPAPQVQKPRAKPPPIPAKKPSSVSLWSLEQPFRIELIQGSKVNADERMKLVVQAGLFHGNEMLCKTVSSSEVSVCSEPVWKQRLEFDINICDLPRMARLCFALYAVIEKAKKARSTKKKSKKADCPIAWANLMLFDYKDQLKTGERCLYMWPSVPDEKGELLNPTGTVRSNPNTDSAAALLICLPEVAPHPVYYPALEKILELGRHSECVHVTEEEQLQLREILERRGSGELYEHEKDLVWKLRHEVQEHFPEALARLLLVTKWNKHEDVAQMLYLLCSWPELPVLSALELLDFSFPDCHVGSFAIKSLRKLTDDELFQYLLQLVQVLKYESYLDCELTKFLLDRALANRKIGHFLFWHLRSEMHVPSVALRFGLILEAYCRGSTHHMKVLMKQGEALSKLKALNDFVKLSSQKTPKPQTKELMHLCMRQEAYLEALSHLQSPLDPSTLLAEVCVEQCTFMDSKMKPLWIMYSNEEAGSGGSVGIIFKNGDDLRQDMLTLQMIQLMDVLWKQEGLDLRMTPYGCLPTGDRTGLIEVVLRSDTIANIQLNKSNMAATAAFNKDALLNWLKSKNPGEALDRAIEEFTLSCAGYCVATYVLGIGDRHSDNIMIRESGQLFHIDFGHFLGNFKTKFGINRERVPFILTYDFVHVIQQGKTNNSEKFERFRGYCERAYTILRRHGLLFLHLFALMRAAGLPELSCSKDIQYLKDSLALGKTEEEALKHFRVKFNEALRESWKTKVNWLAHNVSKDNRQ
The experiment in a line: Inhibition of human PI3Kdelta by HTRF assay. The following applies: read-out: Ki(app).

Series [6] concerns the target Phosphatidylinositol 4,5-bisphosphate 3-kinase catalytic subunit gamma isoform (Homo sapiens, UniProt P48736). The series is described as follows: Inhibition of PI3Kgamma assessed as accumulation of ADP. The following applies: read-out: Ki(app).
Series [7] relates to Mus musculus. The experiment in a line: Down regulation of phosphorylated AKT at S473 level in GEMM mouse lung tumor model driven by KRasG12V oncogenic mutation tumor at 10 mg/kg, po after 1 hr by Western blot analysis. The class given is functional.
For series [8], the system named is Mus musculus. The experiment in a line: Antitumor activity in GEMM mouse lung tumor model driven by KRasG12V oncogenic mutation assessed as tumor growth inhibition at 25 mg/kg, po qd for weekly 5 days for 3 weeks. Conditions: read-out: GI. The format is functional.
For series [9], the species on record is Mus musculus. The series is described as follows: Reduction of [18F]-FDG uptake in GEMM mouse lung tumor model driven by KRasG12V oncogenic mutation tumor after 45 mins by PET-CT analysis. The class given is functional. Conditions: Neoplasm.
A further series concerns Lung. The experiment in a line: Reduction of [18F]-FDG uptake in GEMM mouse lung tumor model driven by KRasG12V oncogenic mutation lung after 45 mins by PET-CT analysis. The class given is functional, tissue-based.
The test system of the next series is BT-474. The experiment in a line: Antitumor activity against human BT474 cells with PI3Kalpha […] mutated xenografted in MF-1 nude mouse assessed as tumor growth inhibition at 10 mg/kg, po qd for weekly 5 days for 2 weeks. The format is functional. Conditions: read-out: GI. (In general: Xenograft models place foreign cells or tissue in a host animal.)
The species entered for another series is Homo sapiens. The experiment in a line: Selectivity ratio of IC50 for mTOR to IC50 for PI3Kalpha.
Series [10] deals with MDR1 (P-gp), human. The series is described as follows: Apparent permeability from apical to basolateral side in MDCK cells over expressing human MDR1 at 2 uM after 150 mins. The format is ADME, cell-based, Canis lupus familiaris. Conditions: dog.
For series [11], the system named is MDR1 (P-gp), human. The experiment in a line: Efflux ratio of permeability from basolateral to apical side over apical to basolateral side in MDCK cells over expressing human MDR1 at 2 uM after 150 mins. The format is ADME, cell-based, Canis lupus familiaris. Conditions: dog.
The target in a further series is CYP3A4 (Homo sapiens, UniProt P08684). The experiment in a line: Inhibition of CYP3A4 at 10 uM. The format is ADME.
The next series addresses CYP2D6 (Homo sapiens, UniProt P10635). The series is described as follows: Inhibition of CYP2D6 at 10 uM. The class given is ADME.
The target of a further series is CYP2C9 (Homo sapiens, UniProt P11712). The experiment in a line: Inhibition of CYP2C9 at 10 uM. The class given is ADME.
The next series concerns the target T3, CYP1A2 (Homo sapiens, UniProt P05177).
T3 sequence (P05177 whole entry): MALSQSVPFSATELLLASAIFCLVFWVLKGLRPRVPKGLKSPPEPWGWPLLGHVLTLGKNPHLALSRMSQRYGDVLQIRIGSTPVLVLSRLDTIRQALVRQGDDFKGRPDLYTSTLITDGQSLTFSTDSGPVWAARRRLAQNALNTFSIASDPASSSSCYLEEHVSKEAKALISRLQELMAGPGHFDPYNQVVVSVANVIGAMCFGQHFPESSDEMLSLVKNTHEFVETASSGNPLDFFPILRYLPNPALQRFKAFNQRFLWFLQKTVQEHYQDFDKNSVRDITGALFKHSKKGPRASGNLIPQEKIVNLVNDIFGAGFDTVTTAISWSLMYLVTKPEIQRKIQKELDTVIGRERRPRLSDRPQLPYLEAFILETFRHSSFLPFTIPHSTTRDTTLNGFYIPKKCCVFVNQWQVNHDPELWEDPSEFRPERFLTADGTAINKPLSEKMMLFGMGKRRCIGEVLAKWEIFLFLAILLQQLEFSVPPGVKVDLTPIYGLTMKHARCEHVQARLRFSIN
The experiment in a line: Inhibition of CYP1A2 at 10 uM. The class given is ADME.

In a further series the target is CYP2C19 (Homo sapiens, UniProt P33261). The series is described as follows: Inhibition of CYP2C19 at 10 uM. The format is ADME.
The nature of series [12]: Metabolic stability in mouse liver microsomes assessed as compound remaining at 1 uM after 15 mins. The class given is ADME, Microsome. The following applies: read-out: Stability.
Series [13] is described as follows: Metabolic stability in human liver microsomes assessed as compound remaining at 1 uM after 15 mins. The format is ADME, Microsome. The following applies: read-out: Stability.

Eleven compounds from ChEMBL document CHEMBL2057167, “Rapid identification of ETP-46992, orally bioavailable PI3K inhibitor, selective versus mTOR” (Bioorg Med Chem Lett, 2012) can be followed below.

One may read the IC50 as the midpoint of a concentration-inhibition curve. Usually Papp A→B stands for the apparent permeability from the apical to the basolateral side of a cell layer. A word on the efflux ratio: it is the permeability from basolateral to apical divided by that in the opposite direction, in the common usage. A word on the inhibition: it is the change of the read-out against control, counted positive when it falls. High values mean a strong effect, low ones a weak effect.

Activity calls are given as the source filed them. The calls are words filed in the database; no cut-off is given here. A value given as a limit tells only on which side of the number the result lay.

T1 sequence (P42336 whole entry, canonical isoform): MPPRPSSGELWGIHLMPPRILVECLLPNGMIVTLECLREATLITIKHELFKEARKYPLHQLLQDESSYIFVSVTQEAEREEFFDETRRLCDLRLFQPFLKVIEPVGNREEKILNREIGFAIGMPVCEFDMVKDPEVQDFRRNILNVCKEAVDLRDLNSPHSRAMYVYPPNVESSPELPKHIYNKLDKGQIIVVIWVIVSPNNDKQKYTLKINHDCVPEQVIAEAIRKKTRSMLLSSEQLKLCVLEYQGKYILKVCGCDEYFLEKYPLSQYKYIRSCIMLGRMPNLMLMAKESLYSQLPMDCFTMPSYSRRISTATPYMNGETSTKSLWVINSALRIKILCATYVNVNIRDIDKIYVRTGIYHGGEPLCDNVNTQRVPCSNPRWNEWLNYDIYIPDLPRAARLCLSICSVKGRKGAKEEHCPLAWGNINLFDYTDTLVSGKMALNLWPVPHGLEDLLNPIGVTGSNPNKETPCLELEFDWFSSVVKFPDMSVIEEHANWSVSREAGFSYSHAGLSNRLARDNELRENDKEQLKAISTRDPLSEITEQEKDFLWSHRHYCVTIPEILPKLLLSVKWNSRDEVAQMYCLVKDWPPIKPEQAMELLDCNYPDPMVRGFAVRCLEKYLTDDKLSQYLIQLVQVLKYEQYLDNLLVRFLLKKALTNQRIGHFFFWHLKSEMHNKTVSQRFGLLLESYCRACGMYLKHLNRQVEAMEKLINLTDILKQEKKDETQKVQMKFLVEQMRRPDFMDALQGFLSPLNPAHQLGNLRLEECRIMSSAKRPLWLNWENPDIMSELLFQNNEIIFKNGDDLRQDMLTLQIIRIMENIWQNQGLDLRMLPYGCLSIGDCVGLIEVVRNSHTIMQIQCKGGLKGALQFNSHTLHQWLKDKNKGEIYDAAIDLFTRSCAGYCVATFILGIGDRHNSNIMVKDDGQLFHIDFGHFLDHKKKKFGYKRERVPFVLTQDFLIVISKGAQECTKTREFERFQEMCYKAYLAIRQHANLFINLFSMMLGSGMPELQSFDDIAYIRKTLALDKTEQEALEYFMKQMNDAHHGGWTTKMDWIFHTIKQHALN
Sequence of Phosphatidylinositol 4,5-bisphosphate 3-kinase catalytic subunit gamma isoform (P48736 whole entry, canonical isoform): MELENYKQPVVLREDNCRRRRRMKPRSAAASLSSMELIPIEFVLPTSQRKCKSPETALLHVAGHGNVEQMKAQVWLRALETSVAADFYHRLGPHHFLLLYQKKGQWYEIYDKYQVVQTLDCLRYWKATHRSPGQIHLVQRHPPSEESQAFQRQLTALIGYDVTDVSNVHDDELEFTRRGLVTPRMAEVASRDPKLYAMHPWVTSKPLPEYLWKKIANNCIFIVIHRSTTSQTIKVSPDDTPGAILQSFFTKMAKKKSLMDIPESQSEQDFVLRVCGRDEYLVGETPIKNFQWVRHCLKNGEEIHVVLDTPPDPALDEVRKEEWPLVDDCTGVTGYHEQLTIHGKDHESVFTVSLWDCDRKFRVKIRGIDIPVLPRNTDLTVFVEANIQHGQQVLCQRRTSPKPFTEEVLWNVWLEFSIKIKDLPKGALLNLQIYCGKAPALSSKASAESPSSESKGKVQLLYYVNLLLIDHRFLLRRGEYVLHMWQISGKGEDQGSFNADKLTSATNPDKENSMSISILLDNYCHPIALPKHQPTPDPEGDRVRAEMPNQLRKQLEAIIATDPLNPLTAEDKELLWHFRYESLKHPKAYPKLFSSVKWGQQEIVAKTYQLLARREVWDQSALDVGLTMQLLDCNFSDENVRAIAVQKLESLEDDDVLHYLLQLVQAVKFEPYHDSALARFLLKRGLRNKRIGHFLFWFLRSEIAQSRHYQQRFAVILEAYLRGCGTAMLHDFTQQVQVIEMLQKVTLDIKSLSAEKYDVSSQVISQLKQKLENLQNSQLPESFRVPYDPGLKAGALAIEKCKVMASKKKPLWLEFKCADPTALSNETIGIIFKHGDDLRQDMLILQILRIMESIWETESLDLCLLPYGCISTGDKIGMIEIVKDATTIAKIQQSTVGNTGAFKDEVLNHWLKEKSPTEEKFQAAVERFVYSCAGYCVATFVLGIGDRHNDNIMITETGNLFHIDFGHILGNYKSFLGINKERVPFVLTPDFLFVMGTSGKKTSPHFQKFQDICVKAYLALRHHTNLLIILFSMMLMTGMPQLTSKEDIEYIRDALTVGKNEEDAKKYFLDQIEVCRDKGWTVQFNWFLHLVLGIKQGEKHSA
Sequence of Phosphatidylinositol 4,5-bisphosphate 3-kinase catalytic subunit beta isoform (P42338 whole entry, canonical isoform): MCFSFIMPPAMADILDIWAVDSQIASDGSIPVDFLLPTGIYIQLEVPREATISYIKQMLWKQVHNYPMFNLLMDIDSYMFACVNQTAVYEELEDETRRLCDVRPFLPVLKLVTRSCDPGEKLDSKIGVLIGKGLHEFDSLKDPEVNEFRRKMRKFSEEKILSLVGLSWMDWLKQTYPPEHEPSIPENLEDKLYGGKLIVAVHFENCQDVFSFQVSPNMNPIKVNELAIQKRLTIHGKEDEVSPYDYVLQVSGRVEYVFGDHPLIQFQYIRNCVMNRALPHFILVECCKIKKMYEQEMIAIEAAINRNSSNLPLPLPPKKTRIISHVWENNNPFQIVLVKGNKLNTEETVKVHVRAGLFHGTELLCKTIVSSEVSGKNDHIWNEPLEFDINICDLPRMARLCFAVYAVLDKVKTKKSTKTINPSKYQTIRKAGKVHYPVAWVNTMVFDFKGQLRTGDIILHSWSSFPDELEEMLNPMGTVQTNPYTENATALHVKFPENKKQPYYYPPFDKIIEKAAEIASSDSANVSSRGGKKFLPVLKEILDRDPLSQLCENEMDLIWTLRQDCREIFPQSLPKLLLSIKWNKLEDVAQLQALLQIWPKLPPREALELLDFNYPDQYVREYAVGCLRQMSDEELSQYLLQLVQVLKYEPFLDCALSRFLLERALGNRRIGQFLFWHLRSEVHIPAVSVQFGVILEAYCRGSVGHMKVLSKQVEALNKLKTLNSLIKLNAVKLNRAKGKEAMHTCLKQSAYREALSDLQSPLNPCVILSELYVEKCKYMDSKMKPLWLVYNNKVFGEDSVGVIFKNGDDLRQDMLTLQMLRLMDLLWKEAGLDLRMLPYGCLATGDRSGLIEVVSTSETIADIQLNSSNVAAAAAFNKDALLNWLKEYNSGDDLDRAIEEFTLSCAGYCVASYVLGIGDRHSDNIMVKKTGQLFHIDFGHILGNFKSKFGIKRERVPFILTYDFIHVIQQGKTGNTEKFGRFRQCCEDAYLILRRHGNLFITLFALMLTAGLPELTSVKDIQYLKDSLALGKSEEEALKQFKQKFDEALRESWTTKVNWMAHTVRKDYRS
Sequence of CYP3A4 (P08684 whole entry): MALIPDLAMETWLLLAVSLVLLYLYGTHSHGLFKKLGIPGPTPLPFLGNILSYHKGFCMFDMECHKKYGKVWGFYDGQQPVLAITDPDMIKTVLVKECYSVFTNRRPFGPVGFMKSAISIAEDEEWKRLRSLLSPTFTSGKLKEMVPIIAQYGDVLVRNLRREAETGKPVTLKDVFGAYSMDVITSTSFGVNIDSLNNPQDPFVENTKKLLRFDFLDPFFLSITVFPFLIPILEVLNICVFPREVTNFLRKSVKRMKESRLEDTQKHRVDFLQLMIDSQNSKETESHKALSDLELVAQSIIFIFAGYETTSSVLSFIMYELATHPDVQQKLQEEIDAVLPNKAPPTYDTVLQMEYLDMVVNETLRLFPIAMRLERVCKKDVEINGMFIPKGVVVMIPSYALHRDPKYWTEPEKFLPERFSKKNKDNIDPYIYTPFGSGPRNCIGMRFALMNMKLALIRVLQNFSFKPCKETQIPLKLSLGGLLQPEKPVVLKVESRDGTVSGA
Sequence of CYP2D6 (P10635 whole entry): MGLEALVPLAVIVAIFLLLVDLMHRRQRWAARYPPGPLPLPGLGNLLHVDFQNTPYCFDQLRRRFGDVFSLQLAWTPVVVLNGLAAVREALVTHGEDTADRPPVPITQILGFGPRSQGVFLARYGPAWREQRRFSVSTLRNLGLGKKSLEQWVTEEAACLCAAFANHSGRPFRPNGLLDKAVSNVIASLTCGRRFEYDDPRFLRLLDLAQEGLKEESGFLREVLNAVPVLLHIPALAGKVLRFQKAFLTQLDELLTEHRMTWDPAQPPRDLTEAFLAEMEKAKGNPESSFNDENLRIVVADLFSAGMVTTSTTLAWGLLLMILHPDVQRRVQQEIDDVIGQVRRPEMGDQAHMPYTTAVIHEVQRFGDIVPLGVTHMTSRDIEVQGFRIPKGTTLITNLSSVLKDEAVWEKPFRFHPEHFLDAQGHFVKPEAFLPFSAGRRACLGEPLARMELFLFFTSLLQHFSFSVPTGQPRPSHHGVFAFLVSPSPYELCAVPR
Sequence of CYP2C19 (P33261 whole entry): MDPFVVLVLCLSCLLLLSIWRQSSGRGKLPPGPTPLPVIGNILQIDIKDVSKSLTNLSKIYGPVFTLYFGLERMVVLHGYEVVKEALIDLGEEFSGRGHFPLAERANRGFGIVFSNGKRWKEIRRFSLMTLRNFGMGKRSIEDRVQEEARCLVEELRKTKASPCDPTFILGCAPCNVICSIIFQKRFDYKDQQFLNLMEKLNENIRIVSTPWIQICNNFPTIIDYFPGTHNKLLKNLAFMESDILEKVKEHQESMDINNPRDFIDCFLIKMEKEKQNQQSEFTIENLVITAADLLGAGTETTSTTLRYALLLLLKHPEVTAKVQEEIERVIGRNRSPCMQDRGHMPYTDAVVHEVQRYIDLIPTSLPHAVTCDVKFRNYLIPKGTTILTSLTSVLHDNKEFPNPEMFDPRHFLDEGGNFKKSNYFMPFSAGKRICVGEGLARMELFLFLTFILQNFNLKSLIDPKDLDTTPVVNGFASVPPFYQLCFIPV

In turn, `CN(C)CCCNC(=O)c1cn2cc(-c3cccc4[nH]ncc34)nc(N3CCOCC3)c2n1` showed an IC50 in series [1] of 429 nM.
On to `CN(C)CCCNC(=O)c1cn2cc(-c3cnc(N)nc3)nc(N3CCOCC3)c2n1`, for which the values for the IC50 in series [1], in [2] and in series [3] were 8.7 nM, above 5000 nM and 0.6 nM, respectively.
For `COCCNC(=O)c1nc2c(N3CCOCC3)nc(-c3cnc(N)nc3)cn2c1C`, the Ki in [4] came to 94.1 nM; in [5] it was 8 nM; in [6], 62.9 nM. Besides, the Activity in the series on Mus musculus [7] is above 70%. Besides, the inhibition in vivo at 25 mg/kg in the series with Mus musculus [8] came to 61%. Moreover, the outcome in the series listed under Mus musculus [9] and in the series on Lung was Active. Also, the inhibition in vivo at 10 mg/kg with BT-474 was found to be 58%.
`Nc1ncc(-c2cn3cc(C(=O)N[C@H]4CC[C@H](O)CC4)nc3c(N3CCOCC3)n2)cn1`: the Ratio IC50 in the series listed under Homo sapiens was above 50. Also, the IC50 came out at 70 nM in series [1] and 989 nM in series [2].
For the compound `COCCNC(=O)c1cn2cc(-c3cnc(N)nc3)nc(N3CCOCC3)c2n1`, the IC50 in series [1] is 14 nM; in series [2] it was 2290 nM; in series [3] it was 2.7 nM.
In the case of `NC(=O)c1cn2cc(-c3cnc(N)nc3)nc(N3CCOCC3)c2n1`, in the series on MDR1 (P-gp), human [10], the apparent permeability from apical to basolateral (Papp A→B) at 2.5 h, 2 µM is 15.4 ×10⁻⁶ cm/s. In addition, the efflux ratio at 2.5 h, 2 µM with MDR1 (P-gp), human [11] stood at 0.9. The inhibition at 10 µM against CYP3A4 was 17%; on CYP2D6 it was 8%; against CYP2C9, 5%; against CYP1A2 it was 24%; against CYP2C19, 13%. Further, the remaining at 0.25 h, 1 µM in series [12] was 92%; in [13] it was 90%. Further, in the series listed under Homo sapiens, the Ratio IC50 is above 50. The half-inhibitory concentration (IC50) in series [1] stood at 1.8 nM; in series [2], 237 nM; in series [3], 0.4 nM.
With `Nc1ncc(-c2cn3cc(C(=O)NC4CCOCC4)nc3c(N3CCOCC3)n2)cn1`, the IC50 in series [2] worked out at 751 nM.
Regarding `COCCCNC(=O)c1cn2cc(-c3cnc(N)nc3)nc(N3CCOCC3)c2n1`, the IC50 in series [1] was 26 nM; in series [2], above 5000 nM; in [3] it was 3.2 nM.
With `COCCNC(=O)c1cn2c(Cl)c(-c3cnc(N)nc3)nc(N3CCOCC3)c2n1`, the IC50 in [1] is 35.1 nM; in series [3] it was 11.2 nM.
Consider `CN(C)CCNC(=O)c1cn2cc(-c3cnc(N)nc3)nc(N3CCOCC3)c2n1`, for which the half-maximal inhibitory concentration (IC50) is 30.3 nM in series [1], above 5000 nM in [2] and 4.6 nM in series [3].
The like results for `Nc1ncc(-c2cn3cc(C(=O)NCCN4CCOCC4)nc3c(N3CCOCC3)n2)cn1` were, in that order, 34.3 nM, above 5000 nM and 10.4 nM.
